Experimental data: ChEMBL document CHEMBL1201862, “PubChem BioAssay data set” (2004)
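Protocol summary: plate cells (96-well), add compound at 5 concentrations, incubate 48 h, interpolate endpoints linearly. The concentration for 50% growth inhibition is given as GI50.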 Activity calls are given as the source filed them. Rule as the data show it: active = GI50 up to about 1.1 µM and inactive = higher. Positions of bridges follow the written chain, without caps; N, C: chain ends. Non-standard residues stand in square brackets, D forms with d. Residues, ends and D or L forms follow the SMILES beside them. ξ: configuration not given here. *: point of attachment. X28 = O=C(/C=C/C=C/C=C/C=C/C=C/C(=O)*)NC1=C(O)CCC1=O; Pro(4R-Me) = C[C@H]1CN[C@H](C(=O)O)C1; NMeA = CN[C@@H](C)C(=O)O; ξF = NC(Cc1ccccc1)C(=O)O; ξA = CC(N)C(=O)O

How the values were obtained:
Assay in all cases: DTP human tumour cell line panel, 48 h
SNB-75 = system: SNB-75
COLO 205 = system: COLO 205
Malme-3M = system: Malme-3M
OVCAR-3 = system: OVCAR-3
OVCAR-5 = system: OVCAR-5
UACC-62 = system: UACC-62
EKVX = system: EKVX
NCI-H23 = system: NCI-H23
T47D = system: T47D
KM12 = system: KM12
U-251 = system: U-251
NCI/ADR-RES = system: NCI/ADR-RES
A498 = system: A498
SF-268 = system: SF-268
HL-60 = system: HL-60
CAKI-1 = system: CAKI-1
SN12C = system: SN12C
RPMI-8226 = system: RPMI-8226
SF-295 = system: SF-295

SMILES | GI50 (SNB-75) | GI50 (COLO 205) | GI50 (Malme-3M) | GI50 (OVCAR-3) | GI50 (OVCAR-5) | GI50 (UACC-62) | GI50 (EKVX) | GI50 (NCI-H23) | GI50 (T47D) | GI50 (KM12) | GI50 (U-251) | GI50 (NCI/ADR-RES) | GI50 (A498) | GI50 (SF-268) | GI50 (HL-60) | GI50 (CAKI-1) | GI50 (SN12C) | GI50 (RPMI-8226) | GI50 (SF-295)
Cc1ccc(-c2n[nH]c(=O)n2/N=C\c2ccc([N+](=O)[O-])cc2)cc1 | 97.5 µM (inactive) | > 100 µM (inactive) | > 100 µM (inactive) | > 100 µM (inactive) | > 100 µM (inactive) | 60.1 µM (inactive) | > 100 µM (inactive) | > 100 µM (inactive) | > 91.8 µM (inactive) | > 100 µM (inactive) | > 100 µM (inactive) | > 100 µM (inactive) | > 100 µM (inactive) | > 100 µM (inactive) | > 35.7 µM (inactive) | > 100 µM (inactive) | > 100 µM (inactive) | 76.9 µM (inactive) | > 100 µM (inactive)
CC1NC(=O)[C@H](C)N(C)C(=O)[C@@H]2CCCN2C(=O)[C@@H](NC(=O)C(Cc2ccccc2)NC(=O)/C=C/C=C/C=C/C=C/C=C/C(=O)NC2=C(O)CCC2=O)COC(=O)[C@@H]2C[C@@H](C)CN2C1=O (stereo partly drawn) (X28-[ξF]SP[NMeA][ξA][Pro(4R-Me)]; ester 2-C) | > 100 µM (inactive) | > 100 µM (inactive) | > 100 µM (inactive) | > 100 µM (inactive) | > 100 µM (inactive) | > 100 µM (inactive) | > 100 µM (inactive) | > 100 µM (inactive) | > 100 µM (inactive) | > 100 µM (inactive) | > 100 µM (inactive) | > 100 µM (inactive) | > 100 µM (inactive) | > 100 µM (inactive) | > 100 µM (inactive) | > 100 µM (inactive) | > 100 µM (inactive) | > 100 µM (inactive) | > 100 µM (inactive)
Oc1cccc2c(Br)ccnc12 | 7.59 µM (inactive) | 11.2 µM (inactive) | 8.38 µM (inactive) | 0.697 µM (active) | 6.08 µM (inactive) | 1.47 µM (inactive) | 2.88 µM (inactive) | 3.94 µM (inactive) | 3.17 µM (inactive) | 5.19 µM (inactive) | 2.28 µM (inactive) | 2.08 µM (inactive) | 7.82 µM (inactive) | 0.767 µM (active) | 0.181 µM (active) | 12.3 µM (inactive) | 3.62 µM (inactive) | 0.665 µM (active) | 1.46 µM (inactive)
COc1ccc2oc(OC)c(CC=C(C)C)c(=O)c2c1C | > 100 µM (inactive) | > 100 µM (inactive) | > 100 µM (inactive) | > 100 µM (inactive) | > 100 µM (inactive) | > 100 µM (inactive) | > 100 µM (inactive) | > 100 µM (inactive) | > 100 µM (inactive) | > 100 µM (inactive) | > 100 µM (inactive) | > 100 µM (inactive) | > 100 µM (inactive) | > 100 µM (inactive) | > 100 µM (inactive) | > 100 µM (inactive) | > 100 µM (inactive) | > 100 µM (inactive) | > 100 µM (inactive)
Cc1ccc(-c2cc[n+]3c(n2)oc2ccccc23)cc1 | 25 µM (inactive) | 12.4 µM (inactive) | 13.2 µM (inactive) | 17.7 µM (inactive) | 39.7 µM (inactive) | 24.2 µM (inactive) | 26.4 µM (inactive) | 39.9 µM (inactive) | 16.3 µM (inactive) | 47.1 µM (inactive) | 36.7 µM (inactive) | > 100 µM (inactive) | 19.1 µM (inactive) | 43.9 µM (inactive) | 10.8 µM (inactive) | 41.5 µM (inactive) | > 100 µM (inactive) | 12.5 µM (inactive) | 26.7 µM (inactive)
OC(CCNCc1ccccc1)c1ccc2ccccc2c1 (stereo unspecified) | 28.2 µM (inactive) | 20.7 µM (inactive) | 22 µM (inactive) | 13.3 µM (inactive) | 30.7 µM (inactive) | 19.3 µM (inactive) | 34.8 µM (inactive) | 30 µM (inactive) | 24 µM (inactive) | 17 µM (inactive) | 16.9 µM (inactive) | 24.7 µM (inactive) | 19.4 µM (inactive) | 18.9 µM (inactive) | 19.5 µM (inactive) | 21.8 µM (inactive) | 29.1 µM (inactive) | 23.8 µM (inactive) | 33 µM (inactive)
COc1cc(OC)c(-c2oc3ccccc3c(=O)c2O)c(OC)c1 | 6.01 µM (inactive) | 3.08 µM (inactive) | 2.86 µM (inactive) | 2.63 µM (inactive) | > 100 µM (inactive) | 2.69 µM (inactive) | 39.4 µM (inactive) | 17.3 µM (inactive) | 4.16 µM (inactive) | 1.99 µM (inactive) | 3.84 µM (inactive) | 1.77 µM (inactive) | 3.27 µM (inactive) | > 41.3 µM (inactive) | 2.43 µM (inactive) | 5.74 µM (inactive) | > 100 µM (inactive) | 4.28 µM (inactive) | 2.44 µM (inactive)
O=C(O)CCC(=O)c1ccc2ccc3cccc4ccc1c2c34 | > 100 µM (inactive) | 44.9 µM (inactive) | > 100 µM (inactive) | 53.7 µM (inactive) | > 100 µM (inactive) | > 100 µM (inactive) | 58.2 µM (inactive) | > 100 µM (inactive) | 83 µM (inactive) | 55.2 µM (inactive) | 48.5 µM (inactive) | 96.4 µM (inactive) | 67.5 µM (inactive) | 61.7 µM (inactive) | 23 µM (inactive) | > 100 µM (inactive) | 57 µM (inactive) | 63 µM (inactive) | 70.6 µM (inactive)
CCSc1n/c(=C\c2ccc(N(C)C)cc2)c2nnnn12 | > 100 µM (inactive) | > 100 µM (inactive) | > 100 µM (inactive) | > 100 µM (inactive) | > 100 µM (inactive) | > 100 µM (inactive) | > 100 µM (inactive) | > 100 µM (inactive) | > 100 µM (inactive) | > 100 µM (inactive) | > 100 µM (inactive) | > 100 µM (inactive) | > 100 µM (inactive) | > 100 µM (inactive) | > 100 µM (inactive) | > 100 µM (inactive) | > 100 µM (inactive) | > 100 µM (inactive) | 99.3 µM (inactive)
COc1ccc(-c2[nH]c(-c3ccc(OC)cc3)c(-c3ccccn3)c2-c2ccccn2)cc1 | 31.2 µM (inactive) | 26 µM (inactive) | 21.1 µM (inactive) | 48.9 µM (inactive) | > 100 µM (inactive) | 34.3 µM (inactive) | 72.3 µM (inactive) | 42.5 µM (inactive) | 31.5 µM (inactive) | 38.2 µM (inactive) | 43.8 µM (inactive) | 39.5 µM (inactive) | 82 µM (inactive) | > 100 µM (inactive) | 32.4 µM (inactive) | > 100 µM (inactive) | 52.2 µM (inactive) | 20.2 µM (inactive) | 38.2 µM (inactive)
CC1(C)CC[C@]2(C(=O)O)CC[C@]3(C)C(=CC[C@@H]4[C@@]5(C)CC[C@H](OC6OC(CO)C(O)C(O)C6O)C(C)(C)[C@@H]5CC[C@]43C)[C@@H]2C1 (stereo partly specified) | 2.12 µM (inactive) | 1.8 µM (inactive) | 1.67 µM (inactive) | 1.61 µM (inactive) | 1.9 µM (inactive) | 1.82 µM (inactive) | 1.93 µM (inactive) | 1.99 µM (inactive) | 1.82 µM (inactive) | 1.52 µM (inactive) | 1.68 µM (inactive) | 7.89 µM (inactive) | 2.1 µM (inactive) | 1.83 µM (inactive) | 2 µM (inactive) | 2.3 µM (inactive) | 1.7 µM (inactive) | 2.61 µM (inactive) | 1.78 µM (inactive)
O=C(O)c1ccc(C(=O)c2ccccc2C(=O)O)cc1C(=O)O | > 100 µM (inactive) | > 100 µM (inactive) | > 100 µM (inactive) | > 100 µM (inactive) | > 100 µM (inactive) | > 100 µM (inactive) | > 100 µM (inactive) | > 100 µM (inactive) | > 100 µM (inactive) | > 100 µM (inactive) | > 100 µM (inactive) | > 100 µM (inactive) | > 100 µM (inactive) | > 100 µM (inactive) | > 76.9 µM (inactive) | > 100 µM (inactive) | > 100 µM (inactive) | > 100 µM (inactive) | > 100 µM (inactive)
CC(C)=CCC/C(=C\CC/C(=C\CCc1ccoc1)C(=O)O)C(=O)O | > 100 µM (inactive) | > 100 µM (inactive) | > 100 µM (inactive) | > 100 µM (inactive) | > 100 µM (inactive) | > 100 µM (inactive) | > 100 µM (inactive) | > 100 µM (inactive) | > 100 µM (inactive) | > 100 µM (inactive) | > 100 µM (inactive) | > 100 µM (inactive) | > 100 µM (inactive) | 92.3 µM (inactive) | 11.7 µM (inactive) | > 100 µM (inactive) | > 100 µM (inactive) | > 100 µM (inactive) | > 100 µM (inactive)
NC1CCC(c2cc3ccccc3s2)(N2CCCCC2)CC1 (stereo unspecified) | 10.5 µM (inactive) | 1.58 µM (inactive) | 2.23 µM (inactive) | 1.27 µM (inactive) | 1.48 µM (inactive) | 2.47 µM (inactive) | 1.41 µM (inactive) | 1.64 µM (inactive) | 2.09 µM (inactive) | 1.73 µM (inactive) | 1.53 µM (inactive) | 1.19 µM (inactive) | 9.29 µM (inactive) | 3.57 µM (inactive) | 1.85 µM (inactive) | 2.57 µM (inactive) | 1.67 µM (inactive) | 0.817 µM (active) | 2.64 µM (inactive)
